Converted amounts (≈) assume the structure as drawn. “And” between values parts separate entries of the source, which are not always exact repeats. Equal values may be shown once. Where a name gives a salt, the structure may show the parent alone. Read-outs that look alike come from different tables or passages of the source.
Assays:
SARS-CoV-2 PLpro [1] = biological target: T1, SARS-CoV-2 PLpro (Severe acute respiratory syndrome coronavirus 2, UniProt P0DTD1); conditions: read-out: IC50 against PLpro; cited from earlier work
SARS-CoV-2 [2] = conditions: cited from earlier work
Calu-3 cells = conditions: cited from earlier work
human USP21 = human USP21 (Homo sapiens, UniProt Q9UK80); experiment: biochemical
SARS-CoV-2 PLpro [3] = biological target: T1, SARS-CoV-2 PLpro; experiment: biochemical
in vitro [4] = conditions: mouse, microsomes, pH 7.4
SARS-CoV PLpro [5] = biological target: T2, SARS-CoV PLpro (Severe acute respiratory syndrome coronavirus, UniProt P0C6X7); experiment: biochemical
physchem = conditions: kinetic from dmso stock
SARS-CoV-2 PLpro [6] = biological target: T1, SARS-CoV-2 PLpro; experiment: biochemical; assay type: binding
in vitro [7] = conditions: human, microsomes, pH 7.4
MERS-CoV PLpro [8] = biological target: T3, MERS-CoV PLpro (Middle East respiratory syndrome-related coronavirus, UniProt K9N7C7); experiment: biochemical
in vitro [9] = conditions: human, Caco-2, pH 7.4
SARS-CoV PLpro [10] = biological target: T2, SARS-CoV PLpro; experiment: biochemical; assay type: binding
MERS-CoV PLpro [11] = biological target: T3, MERS-CoV PLpro; experiment: biochemical; assay type: binding
SARS-CoV-2 [12] = assay type: cell-based

T3 sequence (K9N7C7 1482-1803 limits assumed): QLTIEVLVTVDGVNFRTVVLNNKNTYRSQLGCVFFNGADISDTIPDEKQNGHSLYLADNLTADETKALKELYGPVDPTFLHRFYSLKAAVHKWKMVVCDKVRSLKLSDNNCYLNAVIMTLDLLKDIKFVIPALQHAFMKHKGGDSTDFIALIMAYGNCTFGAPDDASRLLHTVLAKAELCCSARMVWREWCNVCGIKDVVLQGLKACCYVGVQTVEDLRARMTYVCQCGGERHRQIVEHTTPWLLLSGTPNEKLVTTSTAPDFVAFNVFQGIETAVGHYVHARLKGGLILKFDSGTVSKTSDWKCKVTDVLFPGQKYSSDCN
Chain of human USP21 (Q9UK80 whole entry): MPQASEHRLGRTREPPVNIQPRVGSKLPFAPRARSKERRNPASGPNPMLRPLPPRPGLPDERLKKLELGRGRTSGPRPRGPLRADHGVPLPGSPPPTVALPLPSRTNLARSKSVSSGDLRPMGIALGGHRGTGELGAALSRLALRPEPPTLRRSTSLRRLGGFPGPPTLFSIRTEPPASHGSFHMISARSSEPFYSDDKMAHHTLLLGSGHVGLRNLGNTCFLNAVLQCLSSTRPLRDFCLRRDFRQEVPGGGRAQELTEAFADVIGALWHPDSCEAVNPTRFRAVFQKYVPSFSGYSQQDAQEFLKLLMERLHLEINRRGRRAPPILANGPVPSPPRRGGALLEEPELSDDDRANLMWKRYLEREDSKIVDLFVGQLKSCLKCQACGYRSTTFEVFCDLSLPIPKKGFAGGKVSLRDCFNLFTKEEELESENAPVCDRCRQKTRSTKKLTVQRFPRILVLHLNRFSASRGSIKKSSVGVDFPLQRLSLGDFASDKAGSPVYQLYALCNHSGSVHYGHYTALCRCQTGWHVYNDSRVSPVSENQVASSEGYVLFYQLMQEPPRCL

For `COc1cc(CNC(=O)C2CCN(C(C)c3cccc4ccccc34)CC2)ccn1` (stereo not drawn) [rac5c], the IC50 (SARS-CoV-2 PLpro [1]) is listed as 600 to 800 nM, the “decrease of SARS-CoV-2 viral titers (TCID50)” value (SARS-CoV-2 [2]) is listed as 2-3 orders of magnitude and the “cytotoxicity, no evidence up to” value (Calu-3 cells) is listed as greater than 33 µM. For the same compound, the IC50 (human USP21) was greater than 98 µM and the IC50 (SARS-CoV-2 PLpro [3]; PLpro IC50) was 790 nM.

In the case of `CC(c1cccc2ccccc12)N1CCC(C(=O)NCc2cccc(F)c2)CC1` (stereo not drawn) [rac3k], the IC50 (SARS-CoV-2 PLpro [1]) is listed as 600 to 800 nM, the “decrease of SARS-CoV-2 viral titers (TCID50)” value (SARS-CoV-2 [2]) is listed as 2-3 orders of magnitude and the IC50 (human USP21) is listed as greater than 98 µM. For the same compound, the IC50 (SARS-CoV-2 PLpro [3]; PLpro IC50) was 1500 nM.

`COc1cc(CNC(=O)C2CCN(C(C)c3csc4ccccc34)CC2)ccn1` (stereo not shown) [Compound 2, 1-{1-[benzo(b)thiophen-3-yl]ethyl}-N-[(2-methoxypyridin-4-yl)methyl]piperidine-4-carboxamide formate] showed an IC50 (SARS-CoV-2 PLpro [3]; calculated IC50) of 4500 nM.

In the case of `COc1cc(CNC(=O)C2CCN(C(C)c3ccc(F)c4ccccc34)CC2)ccn1` (stereo not shown) [Compound 8, 1-[1-(4-fluoronaphthalen-1-yl)ethyl]-N-[(2-methoxypyridin-4-yl)methyl]piperidine-4-carboxamide], the “loss of potency relative to parent 5c” value (SARS-CoV-2 PLpro [3]) is reported as 3 fold and the IC50 (SARS-CoV-2 PLpro [3]; calculated IC50) is reported as 2200 nM.

In the case of `CNC(=O)C1CCN([C@H](C)c2cccc3ccccc23)CC1` [Compound 12, (R)-N-methyl-1-(1-(naphthalen-1-yl)ethyl)piperidine-4-carboxamide], the “loss of potency relative to parent 5c” value (SARS-CoV-2 PLpro [3]) is reported as 4 fold and the IC50 (SARS-CoV-2 PLpro [3]; calculated IC50) is reported as 3100 nM.

`CCOc1ccc(Cl)cc1C(C)N1CCC(C(=O)NCc2ccnc(OC)c2)CC1` (stereo not shown) [Compound 5, 1-[1-(5-chloro-2-ethoxyphenyl)ethyl]-N-[(2-methoxypyridin-4-yl)methyl]piperidine-4-carboxamide] showed an IC50 (SARS-CoV-2 PLpro [3]; calculated IC50) of 7900 nM.

With `CCOc1ccc2ccccc2c1C(C)N1CCC(C(=O)NCc2ccnc(OC)c2)CC1` (stereo not shown) [Compound 7, 1-[1-(2-ethoxynaphthalen-1-yl)ethyl]-N-[(2-methoxypyridin-4-yl)methyl]piperidine-4-carboxamide] the “potency against SARS-CoV-2 PLpro in words” value (SARS-CoV-2 PLpro [3]) was “not tolerated”.

With `COc1cc(CNC(=O)C2CCN(C(C)c3ccc(OC)c4ccccc34)CC2)ccn1` (stereo not shown) [Compound 9, 1-[1-(4-methoxynaphthalen-1-yl)ethyl]-N-[(2-methoxypyridin-4-yl)methyl]piperidine-4-carboxamide] the “efflux in Caco-2” value (Caco-2 cell monolayers) was “no evidence of efflux”, the half-life (in vitro [4]) was 35 min and the microsomal CLint (in vitro [4]) was 50 µL/min/mg. The IC50 (SARS-CoV PLpro [5]) was 700 nM, the solubility kinetic (physchem; pH 2, aqueous buffer) was greater than 140 µg/mL and the solubility kinetic (physchem; pH 6.5, aqueous buffer) was 70 to 140 µg/mL (≈ 161 to 323 µM). The Kd (SARS-CoV-2 PLpro [6]; KD Exp1, SARS-CoV-2 PLpro WT) was 1420 nM, the Kd (SARS-CoV-2 PLpro [6]; KD Exp2, SARS-CoV-2 PLpro WT) was 1820 nM and the Kd (SARS-CoV-2 PLpro [6]; KD Exp3, SARS-CoV-2 PLpro WT) was 2340 nM. It also gave a Kd (SARS-CoV-2 PLpro [6]; KD, SARS-CoV-2) of 1860 ± 460 nM, a half-life (in vitro [7]) of 39 min and a microsomal CLint (in vitro [7]) of 45 µL/min/mg. For the same compound, the IC50 (MERS-CoV PLpro [8]) was greater than 98 µM, the Papp A→B (in vitro [9]) was 46 ×10⁻⁶ cm/s and the Papp B→A (in vitro [9]) was 46 ×10⁻⁶ cm/s. It also gave a Kd (SARS-CoV PLpro [10]; KD Exp1, SARS-CoV) of 805 nM, a Kd (SARS-CoV PLpro [10]; KD Exp2, SARS-CoV) of 800 nM and a Kd (SARS-CoV PLpro [10]; KD Exp3, SARS-CoV) of 840 nM. The Kd (SARS-CoV PLpro [10]; KD, SARS-CoV) was 815 nM and 820 nM, the “Mouse plasma protein binding” value was 90.1 % bound and the Kd (MERS-CoV PLpro [11]) was greater than 20 µM. It also gave a Kd (MERS-CoV PLpro [11]; read-out: KD Exp1, MERS-CoV) greater than 20 µM, a Kd (MERS-CoV PLpro [11]; read-out: KD Exp3, MERS-CoV) greater than 20 µM and an IC50 (SARS-CoV-2 PLpro [3]; IC50, SARS-CoV-2) of 760 nM. For the same compound, the “reduction of viral titer” value (SARS-CoV-2 [12]) was 1 log and the viral titer (SARS-CoV-2 [12]) was “below the limit of detection”.

In the case of `COc1cc(CNC(=O)C2CCN(C(C)c3c(C)sc4ccccc34)CC2)ccn1` (stereo not shown) [Compound 3, N-[(2-methoxypyridin-4-yl)methyl]-1-{1-[2-methylbenzo(b)thiophen-3-yl]ethyl}piperidine-4-carboxamide], the “potency against SARS-CoV-2 PLpro in words” value (SARS-CoV-2 PLpro [3]) is reported as “completely inactive”.

With `COc1cc(CNC(=O)C2CCN(C(C)c3cccc(-c4ccccc4)c3)CC2)ccn1` (stereo not shown) [Compound 1, 1-{1-[(1,1′-biphenyl)-3-yl]ethyl}-N-[(2-methoxypyridin-4-yl)methyl]piperidine-4-carboxamide] the “loss of potency relative to parent 5c” value (SARS-CoV-2 PLpro [3]) was 20 fold and the IC50 (SARS-CoV-2 PLpro [3]; calculated IC50) was 18000 nM.

With `C[C@H](c1cccc2ccccc12)N1CCC(C(=O)NCc2cccc(F)c2)CC1` [Compound 3k] the “efflux in Caco-2” value (Caco-2 cell monolayers) was “no evidence of efflux”, the half-life (in vitro [4]) was 5 min and the microsomal CLint (in vitro [4]) was 337 µL/min/mg. For the same compound, the IC50 (SARS-CoV PLpro [5]) was 860 nM, the solubility kinetic (physchem; pH 2, aqueous buffer) was greater than 100 µg/mL and the solubility kinetic (physchem; pH 6.5, aqueous buffer) was 12.5 to 25 µg/mL (≈ 32 to 64 µM). The Kd (SARS-CoV-2 PLpro [6]; KD Exp1, SARS-CoV-2 PLpro WT) was 2000 nM, the Kd (SARS-CoV-2 PLpro [6]; KD Exp2, SARS-CoV-2 PLpro WT) was 2350 nM and the Kd (SARS-CoV-2 PLpro [6]; KD Exp3, SARS-CoV-2 PLpro WT) was 2850 nM. The Kd (SARS-CoV-2 PLpro [6]; KD, SARS-CoV-2) was 2400 ± 430 nM, the half-life (in vitro [7]) was 7 min and the microsomal CLint (in vitro [7]) was 247 µL/min/mg. The IC50 (MERS-CoV PLpro [8]) was greater than 98 µM, the Papp A→B (in vitro [9]) was 35 ×10⁻⁶ cm/s and the Papp B→A (in vitro [9]) was 36 ×10⁻⁶ cm/s. For the same compound, the Kd (SARS-CoV PLpro [10]; KD Exp1, SARS-CoV) was 662 nM, the Kd (SARS-CoV PLpro [10]; KD Exp2, SARS-CoV) was 795 nM and the Kd (SARS-CoV PLpro [10]; KD Exp3, SARS-CoV) was 686 nM. For the same compound, the Kd (SARS-CoV PLpro [10]; KD, SARS-CoV) was 714 nM and 710 nM, the “Mouse plasma protein binding” value was 95.3 % bound and the Kd (MERS-CoV PLpro [11]) was greater than 20 µM. It also gave a Kd (MERS-CoV PLpro [11]; read-out: KD Exp1, MERS-CoV) greater than 20 µM, a Kd (MERS-CoV PLpro [11]; read-out: KD Exp3, MERS-CoV) greater than 20 µM and an IC50 (SARS-CoV-2 PLpro [3]; IC50, SARS-CoV-2) of 1020 nM. The “reduction of viral titer” value (SARS-CoV-2 [12]) was 1 log.

From article PMC9039177 (Frontiers in Chemistry, 2022)
